Experimental data: patent US20210255193A1, “LYSINE REACTIVE PROBES AND USES THEREOF” (The Scripps Research Institute, priority 2017, published 2021)

How the values were obtained:
Assay in all cases: competitive isoTOP-ABPP
Type in all cases: binding
Conditions in all cases: 50 uM, in vitro, sol, 231
[1] = biological target: T1, WARS Tryptophan--tRNA ligase, cytoplasmic (Homo sapiens, UniProt P23381)
T1 construct: isoTOP-ABPP experiments performed in cell lysates (in vitro); endogenous in cells; host or cells: soluble proteome of human cancer cell lines (MDA-MB-231; Ramos and Jurkat also prepared)
T1 sequence (P23381 1-471): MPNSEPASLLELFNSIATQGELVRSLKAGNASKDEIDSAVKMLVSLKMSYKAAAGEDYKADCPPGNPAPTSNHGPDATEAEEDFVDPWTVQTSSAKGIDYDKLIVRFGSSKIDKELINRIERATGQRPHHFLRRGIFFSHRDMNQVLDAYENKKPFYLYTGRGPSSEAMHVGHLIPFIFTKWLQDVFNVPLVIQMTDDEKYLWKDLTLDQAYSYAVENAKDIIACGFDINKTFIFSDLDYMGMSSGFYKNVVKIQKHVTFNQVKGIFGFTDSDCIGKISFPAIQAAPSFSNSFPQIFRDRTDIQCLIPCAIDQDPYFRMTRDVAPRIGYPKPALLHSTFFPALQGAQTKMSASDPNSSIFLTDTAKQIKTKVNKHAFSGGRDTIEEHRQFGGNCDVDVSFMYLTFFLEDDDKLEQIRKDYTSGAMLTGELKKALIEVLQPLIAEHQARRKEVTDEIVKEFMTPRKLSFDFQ
How it was run: (§1)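 Probe: STP-alkyne, 0.1 mM, 1 h RT, after fragment pretreatment of lysate (esters 50 μM; guanidinylators 100 μM). Tags: light = compound, heavy = DMSO, via CuAAC. Replicates averaged if SD <60% of mean; otherwise lowest ratio used when any R <4.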

[2] = biological target: T2, G6PD Glucose-6-phosphate 1-dehydrogenase (Homo sapiens, UniProt P11413)
T2 construct: isoTOP-ABPP experiments performed in cell lysates (in vitro); endogenous in cells; host or cells: MDA-MB-231 soluble lysate
How it was run: as §1

[3] = biological target: T3, ENOPH1 Enolase-phosphatase E1 (Homo sapiens, UniProt Q9UHY7)
T3 construct: endogenous in cells; host or cells: MDA-MB-231 (soluble fraction of lysate)
How it was run: as §1

LMNA Prelamin-A/C = biological target: T4, LMNA Prelamin-A/C (Homo sapiens, UniProt P02545)
T4 construct: isoTOP-ABPP experiments performed in cell lysates (in vitro); endogenous in cells; host or cells: MDA-MB-231 soluble lysate
T4 sequence (P02545 1-664): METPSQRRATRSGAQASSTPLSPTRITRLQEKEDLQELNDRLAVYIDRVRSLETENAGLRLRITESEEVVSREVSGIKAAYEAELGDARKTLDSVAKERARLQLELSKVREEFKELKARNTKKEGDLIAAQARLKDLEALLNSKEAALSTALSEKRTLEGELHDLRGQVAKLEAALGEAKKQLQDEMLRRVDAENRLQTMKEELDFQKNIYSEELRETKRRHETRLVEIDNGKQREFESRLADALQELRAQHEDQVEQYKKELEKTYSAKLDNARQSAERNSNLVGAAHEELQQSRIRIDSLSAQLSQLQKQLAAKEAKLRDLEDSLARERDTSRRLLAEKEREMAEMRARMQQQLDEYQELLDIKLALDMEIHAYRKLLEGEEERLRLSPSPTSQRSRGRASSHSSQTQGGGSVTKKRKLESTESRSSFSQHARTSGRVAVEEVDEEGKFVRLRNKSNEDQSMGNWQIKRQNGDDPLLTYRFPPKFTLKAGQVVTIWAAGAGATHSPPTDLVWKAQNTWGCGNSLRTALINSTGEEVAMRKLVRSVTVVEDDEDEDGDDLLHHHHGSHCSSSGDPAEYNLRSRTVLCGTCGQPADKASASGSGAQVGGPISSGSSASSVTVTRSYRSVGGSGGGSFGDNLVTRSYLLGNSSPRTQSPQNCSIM
How it was run: as §1

T3 sequence (Q9UHY7 whole entry): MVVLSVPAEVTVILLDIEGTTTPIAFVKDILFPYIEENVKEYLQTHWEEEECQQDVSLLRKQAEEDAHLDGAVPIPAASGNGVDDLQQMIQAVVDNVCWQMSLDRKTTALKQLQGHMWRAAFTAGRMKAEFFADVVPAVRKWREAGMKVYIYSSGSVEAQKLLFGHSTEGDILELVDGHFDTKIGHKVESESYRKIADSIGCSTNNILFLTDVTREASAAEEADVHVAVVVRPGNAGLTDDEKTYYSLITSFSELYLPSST
T2 sequence (P11413 whole entry): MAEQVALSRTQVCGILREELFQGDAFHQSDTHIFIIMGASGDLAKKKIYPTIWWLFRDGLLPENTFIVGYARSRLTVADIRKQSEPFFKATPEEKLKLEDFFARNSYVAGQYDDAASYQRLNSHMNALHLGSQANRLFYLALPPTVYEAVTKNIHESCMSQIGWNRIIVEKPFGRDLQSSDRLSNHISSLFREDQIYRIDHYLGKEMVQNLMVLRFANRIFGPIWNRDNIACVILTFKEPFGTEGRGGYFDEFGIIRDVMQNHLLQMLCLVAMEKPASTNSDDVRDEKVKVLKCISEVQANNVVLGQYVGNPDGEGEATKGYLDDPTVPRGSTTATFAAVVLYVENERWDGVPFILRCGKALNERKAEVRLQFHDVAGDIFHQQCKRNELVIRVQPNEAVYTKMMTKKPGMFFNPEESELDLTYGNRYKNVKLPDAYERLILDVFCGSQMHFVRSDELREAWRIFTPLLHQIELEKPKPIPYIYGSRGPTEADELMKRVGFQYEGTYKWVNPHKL

CC(=O)Oc1ccc([N+](=O)[O-])cc1[N+](=O)[O-] [fragment 43, 2,4-Dinitrophenyl acetate]
isoTOP-ABPP ratio (R) at liganded lysine P23381_K256 [1]: 1.0 | isoTOP-ABPP ratio (R) at liganded lysine P11413_K171 [2]: 1.0 | isoTOP-ABPP ratio (R) at liganded lysine Q9UHY7_K111 [3]: 0.9 | isoTOP-ABPP ratio (R) at liganded lysine P02545_K135 (LMNA Prelamin-A/C): 20.0
